We go through 21 compounds from patent publication US6218406A, “Farnesyl transferase inhibitors, their preparation, the pharmaceutical compositions which contain them and their use in the preparation of medicaments” (Aventis Pharma S.A., priority 1996, dated 2001).

pIC50: −log10 of the molar value. Structures can show the parent of a compound that is named as a salt.

For one assay, the target named is farnesyl transferase (Homo sapiens, UniProt P49354+P49356). As to the kind of experiment: Farnesyl transferase inhibition, [3H]-farnesylation of biotinylated K-ras C-terminal peptide (SPA assay). The assay is classed as biochemical. The conditions noted are these: In vitro inhibitory activity (K-Ras) IC50, K-Ras substrate; 60 min at 37° C.; mean of two IC50 values. The procedure: The farnesyl transferase activity was measured by the amount farnesylated of K-ras substrate or of substrate derived from the peptide corresponding to its C-terminal part, the farnesyl group being introduced by farnesyl pyrophosphate (FPP).
It was then brought into contact with PVT-streptavidin (Amersham)® beads and was quantified by proximity scintillation (SPA assay) between the tritium and the PVT beads, by virtue of the streptavidin/biotin interaction.
Experimentally, farnesyl transferase purified according to the appended protocol was diluted, for this assay, to a concentration such that a consumption of substrates of less than 30% was obtained.
The reaction, carried out in Optiplates 96° microtitration plates, was initiated by the enzyme and lasted sixty minutes at 37° C. It was stopped by addition of 150 μl of mixture of a blocking buffer at pH 4 composed of 0.2M H3 PO4, 1.5 mM MgCl2, 0.5% (w/v) BSA, 0.05% (w/v) sodium azide containing 200 μg of PVT-streptavidin beads.
After slow agitation for thirty minutes (in order to remove the chemiluminescence), the plates were read as [^3 H]CPM in a Top Count® (Packard) scintillation counter for microplates, where they were converted into [^3 H]DPM from a range of coloured agent attenuating the scintillation (quenching).
The percentages of inhibition were calculated with respect to an inhibitor-free control after subtraction from all the values of that of a blank which only contained the substrates and the buffer.
The IC50 values were calculated or measured, from the inhibitions obtained at nine different concentrations, with Enzfitter® or Grafit® software. The IC50 values which appear in the results are the mean of measurements and calculations of two IC50 values.
The term pIC50 denotes the IC50 on a negative log10 scale, so that one unit is a factor of ten. `COc1ccccc1CC(=O)N1C[C@H]2[C@@]3(c4ccc(C)cc4)CC[C@H](c4ccccc43)[C@@]2(C(=O)O)C1` (relative stereo) [Example 5, (3aRS,4SR,9SR,9aRS)-4,9-ethano-2-[(2-methoxyphenyl)acetyl]-9-(4-methylphenyl)-2,3,3a,4,9,9a-hexahydro-1H-benzo[f]isoindole-3a-carboxylic Acid]: the pIC50 is 7.30. On the same count and under the same terms, under `COc1ccccc1CC(=O)N1C[C@H]2[C@@]3(c4ccc(F)cc4)CC[C@H](c4ccccc43)[C@@]2(C(=O)O)C1` (relative stereo) [Example 8, (3aRS,4SR,9SR,9aRS)-4,9-ethano-9-(4-fluorophenyl)-2-[(2-methoxyphenyl)acetyl]-2,3,3a,4,9,9a-hexahydro-1H-benzo[f]isoindole-3a-carboxylic Acid] stands 7.00. `COc1ccccc1CC(=O)N1C[C@H]2[C@@]3(c4cccc(C)c4)CC[C@H](c4ccccc43)[C@@]2(C(=O)O)C1` (relative stereo) [Example 9, (3aRS,4SR,9SR,9aRS)-4,9-ethano-2-[(2-methoxyphenyl)acetyl]-9-(3-methylphenyl)-2,3,3a,4,9,9a-hexahydro-1H-benzo[f]isoindole-3a-carboxylic Acid]: the negative-log IC50 (pIC50) is 7.26.

Staying with this assay, now noted: K-Ras substrate; 60 min at 37° C.; mean of two IC50 values; read-out: In vitro inhibitory activity (K-Ras) IC50.
For `C=C(C(=O)N1C[C@@H]2[C@]3(c4ccc(OC)cc4)CC[C@@H](c4ccccc43)[C@]2(C(=O)O)C1)c1ccccc1OC` (racemic) [Example 74, (3aRS,4SR,9SR,9aRS)-4,9-ethano-9-(4-methoxyphenyl)-2-[2-(2-methoxyphenyl)propenoyl]-2,3,3a,4,9,9a-hexahydro-1H-benzo[f]isoindole-3a-carboxylic Acid], the negative-log IC50 (pIC50) was 7.32. On the same count and under the same terms, as for `C=C(C(=O)N1C[C@@H]2[C@]3(c4ccc(OC)cc4)CC[C@@H](c4ccccc43)[C@]2(C(=O)NO)C1)c1ccccc1OC` (racemic) [Example 78, (3aRS,4SR,9SR,9aRS)-4,9-ethano-9-(4-methoxyphenyl)-2-[2-(2-methoxyphenyl)propenoyl]-2,3,3a,4,9,9a-hexahydro-1H-benzo[f]isoindole-3a-hydroxamic acid], the figure is 7.32. Same read-out and setting: as for `C=C(C(=O)N1C[C@@H]2[C@]3(c4ccc(OC(F)(F)F)cc4)CC[C@@H](c4ccccc43)[C@]2(C(=O)O)C1)c1ccccc1OC` (racemic) [Example 82, (3aRS,4SR,9SR,9aRS)-4,9-ethano-2-[2-(2-methoxyphenyl)propenoyl]-9-(4-trifluoromethoxyphenyl)-2,3,3a,4,9,9a-hexahydro-1H-benzo[f]isoindole-3a-carboxylic Acid], the figure is 7.01; as for `C=C(C(=O)N1C[C@@H]2[C@]3(c4cccc(Br)c4)CC[C@@H](c4ccccc43)[C@]2(C(=O)OC)C1)c1ccccc1OC` (racemic) [Example 83, methyl (3aRS,4SR,9SR,9aRS)-9-(3-bromophenyl)-4,9-ethano-2-[2-(2-methoxyphenyl)propenoyl]-2,3,3a,4,9,9a-hexahydro-1H-benzo[f]isoindole-3a-carboxylate], 6.50; as for `C=C(C(=O)N1C[C@@H]2[C@]3(c4cccc(Br)c4)CC[C@@H](c4ccccc43)[C@]2(C(=O)O)C1)c1ccccc1OC` (racemic) [Example 84, (3aRS,4SR,9SR,9aRS)-9-(3-bromophenyl)-4,9-ethano-2-[2-(2-methoxyphenyl)propenoyl]-2,3,3a,4,9,9a-hexahydro-1H-benzo[f]isoindole-3a-carboxylic Acid], 8.10. As to `C=C(C(=O)N1C[C@@H]2[C@]3(c4cccc(F)c4)CC[C@@H](c4ccccc43)[C@]2(C(=O)OC)C1)c1ccccc1OC` (racemic) [Example 85, methyl (3aRS,4SR,9SR,9aRS)-4,9-ethano-9-(3-fluorophenyl)-2-[2-(2-methoxyphenyl)propenoyl]-2,3,3a,4,9,9a-hexahydro-1H-benzo[f]isoindole-3a-carboxylate], the pIC50 was 6.29. The same measure, in the same setting: under `C=C(C(=O)N1C[C@@H]2[C@]3(c4cccc(F)c4)CC[C@@H](c4ccccc43)[C@]2(C(=O)O)C1)c1ccccc1OC` (racemic) [Example 86, (3aRS,4SR,9SR,9aRS)-4,9-ethano-9-(3-fluorophenyl)-2-[2-(2-methoxyphenyl)propenoyl]-2,3,3a,4,9,9a-hexahydro-1H-benzo[f]isoindole-3a-carboxylic Acid] stands 8.30; under `C=C(C(=O)N1C[C@@H]2[C@]3(c4cccc(Cl)c4)CC[C@@H](c4ccccc43)[C@]2(C(=O)OC)C1)c1ccccc1OC` (racemic) [Example 88, methyl (3aRS,4SR,9SR,9aRS)-9-(3-chlorophenyl)-4,9-ethano-2-[2-(2-methoxyphenyl)propenoyl]-2,3,3a,4,9,9a-hexahydro-1H-benzo[f]isoindole-3a-carboxylate], 6.39. Regarding `C=C(C(=O)N1C[C@@H]2[C@]3(c4cccc(Cl)c4)CC[C@@H](c4ccccc43)[C@]2(C(=O)O)C1)c1ccccc1OC` (racemic) [Example 89, (3aRS,4SR,9SR,9aRS)-9-(3-chlorophenyl)-4,9-ethano-2-[2-(2-methoxyphenyl)propenoyl]-2,3,3a,4,9,9a-hexahydro-1H-benzo[f]isoindole-3a-carboxylic Acid], the negative logarithm of the IC50 (pIC50) is 8.30.

As to `C=C(C(=O)N1C[C@@H]2[C@]3(c4cccc(N)c4)CC[C@@H](c4ccccc43)[C@]2(C(=O)OC)C1)c1ccccc1OC` (racemic) [Example 93, methyl (3aRS,4SR,9SR,9aRS)-9-(3-aminophenyl)-4,9-ethano-2-[2-(2-methoxyphenyl)propenoyl]-2,3,3a,4,9,9a-hexahydro-1H-benzo[f]isoindole-3a-carboxylate hydrochloride], the negative logarithm of the IC50 (pIC50) is 6.10. Still for that read-out and setting: under `C=C(C(=O)N1C[C@@H]2[C@]3(c4ccc(C#N)cc4)CC[C@@H](c4ccccc43)[C@]2(C(=O)O)C1)c1ccccc1OC` (racemic) [Example 95, (3aRS,4SR,9SR,9aRS)-9-(4-cyanophenyl)-4,9-ethano-2-[2-(2-methoxyphenyl)propenoyl]-2,3,3a,4,9,9a-hexahydro-1H-benzo[f]isoindole-3a-carboxylic Acid] stands 6.75; under `C=C(C(=O)N1C[C@@H]2[C@]3(c4cccc(C#N)c4)CC[C@@H](c4ccccc43)[C@]2(C(=O)OC)C1)c1ccccc1OC` (racemic) [Example 96, methyl (3aRS,4SR,9SR,9aRS)-9-(3-cyanophenyl)-4,9-ethano-2-[2-(2-methoxyphenyl)propenoyl]-2,3,3a,4,9,9a-hexahydro-1H-benzo[f]isoindole-3a-carboxylate], 6.02.

Regarding `C=C(C(=O)N1C[C@@H]2[C@]3(c4ccc(OC)c(O)c4)CC[C@@H](c4ccccc43)[C@]2(C(=O)O)C1)c1ccccc1OC` (racemic) [Example 97, (3aRS,4SR,9SR,9aRS)-4,9-ethano-9-(3-hydroxy-4-methoxyphenyl)-2-[2-(2-methoxyphenyl)propenoyl]-2,3,3a,4,9,9a-hexahydro-1H-benzo[f]isoindole-3a-carboxylic Acid], the pIC50 is 7.40.

For `C=C(C(=O)N1C[C@@H]2[C@]3(c4ccc(C)cc4)CC[C@@H](c4c(OC)cccc43)[C@]2(C(=O)OC)C1)c1ccccc1OC` (racemic) [Example 98, methyl (3aRS,4SR,9SR,9aRS)-4,9-ethano-5-methoxy-2-[2-(2-methoxyphenyl)propenoyl]-9-(4-methylphenyl)-2,3,3a,4,9,9a-hexahydro-1H-benzo[f]isoindole-3a-carboxylate], the negative-log IC50 (pIC50) was 6.18.

For `C=C(C(=O)N1C[C@@H]2[C@]3(c4ccc(C)cc4)CC[C@@H](c4c(OC)cccc43)[C@]2(C(=O)O)C1)c1ccccc1OC` (racemic) [Example 99, (3aRS,4SR,9SR,9aRS)-4,9-ethano-5-methoxy-2-[2-(2-methoxyphenyl)propenoyl]-9-(4-methylphenyl)-2,3,3a,4,9,9a-hexahydro-1H-benzo[f]isoindole-3a-carboxylic Acid], the negative-log IC50 (pIC50) is 7.74. Still for that read-out and setting: under `C=C(C(=O)N1C[C@@H]2[C@]3(c4ccc(OC)cc4)CC[C@@](C)(c4ccccc43)[C@@]2(C(=O)O)C1)c1ccccc1OC` (racemic) [Example 101, (3aRS,4SR,9SR,9aRS)-4,9-ethano-2-[2-(2-methoxyphenyl)propenoyl]-9-(4-methoxyphenyl)-4-methyl-2,3,3a,4,9,9a-hexahydro-1H-benzo[f]isoindole-3a-carboxylic Acid] stands over 7.72; under `COc1ccc([C@]23CC[C@H](c4ccccc42)[C@@]2(C(=O)O)CN(C(=O)Cc4ccccc4OC)C[C@@H]32)cc1` (relative stereo) [Example 6, (3aRS,4SR,9SR,9aRS)-4,9-ethano-9-(4-methoxyphenyl)-2-[(2-methoxyphenyl)acetyl]-2,3,3a,4,9,9a-hexahydro-1H-benzo[f]isoindole-3a-carboxylic Acid], 7.24; under `COc1ccccc1CC(=O)N1C[C@H]2[C@@]3(c4ccc(SC)cc4)CC[C@H](c4ccccc43)[C@@]2(C(=O)O)C1` (relative stereo) [Example 7, (3aRS,4SR,9SR,9aRS)-4,9-ethano-2-[(2-methoxyphenyl)acetyl]-9-(4-methylsulphanylphenyl)-2,3,3a,4,9,9a-hexahydro-1H-benzo[f]isoindole-3a-carboxylic Acid], 7.30.
